The pIC50 is the negative decadic logarithm of the IC50, by convention in mol/L.

For assay [1], the target named is Neuraminidase (Influenza A virus (strain A/USSR/90/1977 H1N1), UniProt P03469, H274Y).
Assay [2] relates to Neuraminidase (Influenza A virus (strain A/USSR/90/1977 H1N1)), P03469 [H274Y]. The assay can be described thus: Induction of drug resistance in influenza A virus H1N1 expressing neuraminidase H274Y mutant assessed as reduction in susceptibility relative to control. In kind it is functional. Also on record: scale not given: the % may be the effect or the level left.
Assay [3] can be described thus: Induction of drug resistance in influenza A virus H3N1 expressing neuraminidase N294S mutant assessed as reduction in susceptibility relative to control. The format is functional. Further details: scale not given: the % may be the effect or the level left.
Assay [4] can be described thus: Induction of drug resistance in influenza A virus H1N1 expressing neuraminidase I222R mutant assessed as reduction in susceptibility relative to control. In kind it is functional. Further details: scale not given: the % may be the effect or the level left.
Assay [5] can be described thus: Induction of drug resistance in influenza A virus H1N1 expressing neuraminidase S246N mutant assessed as reduction in susceptibility relative to control. In kind it is functional. Also on record: scale not given: the % may be the effect or the level left.

pIC50: −log10 of the molar value. Some results are limits rather than exact numbers.

In turn, `CC(=O)N[C@@H]1[C@@H](N)CC(C(=O)O)=C[C@H]1OC1CCSC1` (stereo not given in full) had a pIC50 in assay [1] of 7.17.
With `CCOC(=O)C1=C[C@@H](OC(CC)CC)[C@H](NC(C)=O)[C@@H](N)C1` [OSELTAMIVIR], the Activity in assay [2], in assay [3], in assay [4] and in assay [5] was below 3.5% each time.

The values are drawn from ChEMBL document CHEMBL5331047 (Eur J Med Chem, 2022).
